{"source": "paper PMC8329121", "about": "(Journal of Neuroimmune Pharmacology, 2021)", "key": {"[1]": {"target": "T1, E2C-I159C hDAT (C90A/C306A/I159C) (Homo sapiens, UniProt Q01959, C306A/C90A/I159C)", "T1 construct": "expressed in transfected cells; host or cells: HEK293 cells, transient, pcDNA3.1+", "T1 sequence (Q01959 1-620 C90A/I159C/C306A)": "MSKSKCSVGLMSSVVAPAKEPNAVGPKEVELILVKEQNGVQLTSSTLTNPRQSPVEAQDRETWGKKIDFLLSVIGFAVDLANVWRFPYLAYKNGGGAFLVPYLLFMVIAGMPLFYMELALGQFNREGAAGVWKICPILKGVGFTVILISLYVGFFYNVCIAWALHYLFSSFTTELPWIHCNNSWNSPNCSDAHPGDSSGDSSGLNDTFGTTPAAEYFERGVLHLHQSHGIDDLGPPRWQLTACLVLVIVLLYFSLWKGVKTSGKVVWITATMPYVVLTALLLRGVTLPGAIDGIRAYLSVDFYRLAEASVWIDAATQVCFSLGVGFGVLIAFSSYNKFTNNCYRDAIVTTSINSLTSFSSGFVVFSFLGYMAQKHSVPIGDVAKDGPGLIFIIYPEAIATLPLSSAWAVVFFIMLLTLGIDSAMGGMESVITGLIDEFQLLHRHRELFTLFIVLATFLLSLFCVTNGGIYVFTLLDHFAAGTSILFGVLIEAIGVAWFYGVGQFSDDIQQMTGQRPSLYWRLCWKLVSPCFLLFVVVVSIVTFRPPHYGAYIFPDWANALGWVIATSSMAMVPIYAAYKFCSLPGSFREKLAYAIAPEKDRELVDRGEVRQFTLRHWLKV", "assay": "MTSET assay, [3H]DA uptake in HEK293 cells", "format": "cell-based", "excerpt": "(§1) All mutants on hDAT were generated based on the predictions made using our computational model, as described previously using site-directed mutagenesis based on the wild-type hDAT (WT hDAT) sequence (NCBI, cDNA clone MGC: 164,608 IMAGE: 40,146,999) (Quizon et al. [2016]). The combination of hDAT mutations on Asp206 and His547 (Aspartic acid 206 to leucine and histidine 547 to alanine, D206L/H547A) were predicted to eliminate two hydrogen bonds between Tat and hDAT. In addition, the combination of mutations on Tyr88, Asp206, and His547 (tyrosine88 to phenylalanine and aspartic acid 206 to leucine and histidine 547 to alanine, Y88F/D206L/H547A) were predicted to eliminate three hydrogen bonds from the Tat-hDAT complex. Two extracellular cysteine90 and cysteine306 residues on WT hDAT were mutated to alanine as E2C hDAT (C90A/C306A hDAT), rendering the E2C hDAT MTSET-insensitive background (Pedersen et al. [2014]). A triple mutation of the two cysteine90 and 306 residues to alanine and […] to cysteine on WT hDAT was generated as E2C-I159C hDAT (C90A/C306A/I159C) for MTSET-sensitive construct. A combination of C90A/C306A/H547A was generated as E2C/H547A hDAT for MTSET-insensitive control for H547A. To determine whether H547A-enhanced DA transport is mediated by changing transporter conformation, two combinations of C90A/C306A/I159C/H547A and C90A/C306A/I159A/H547A were generated as E2C-I159C/H547A and E2C-I159A/H547A for positive and negative controls for MTSET sensitive background, respectively. Synthetic cDNA encoding hDAT subcloned into pcDNA3.1+ (provided by Dr. Haley E Melikian, University of Massachusetts) was used as a template to generate mutants using site-directed mutagenesis performed by GENEWIZ (South Plainfield, NJ). DNA sequencing was also performed by GENEWIZ to confirm the sequences of the mutant constructs. Plasmid DNA were propagated and purified using the Qiagen Hi-speed maxi prep plasmid DNA isolation kit (Qiagen, Valencia, CA, USA).\n(§2) This assay was performed based on the previous report with minor modifications (Loland et al. [2004], [2008]). First, we generated five WT hDAT based plasmid construct for MTSET-insensitive or sensitive background as we described above. HEK293 cells were grown in poly-d-lysine coated plates at a density of 1 × 10^5 cells/cm^2 were transfected with different E2C- associated hDAT background constructs: E2C hDAT, E2C-I159C hDAT, E2C/H547A hDAT, E2C-I159C/H547A or E2C-I159A/H547A. Twenty-four hours after the transfection, cells were washed twice with 1× KRH buffer, and preincubated with or without the presence of 10 µM nomifensine (for non-specific uptake) and MTSET for 10 min at room temperature. MTSET at 1 mM final concentration was chosen based on a pilot study on optimizing MTSET concentrations (0.1, 0.5 or 1.0 mM). […] Because MTSET is easily hydrolyzed in solution, the amount needed for a 10 × stock was weighed out and dissolved in 1 × KRH buffer just right before adding to the assigned wells, for a 10-fold dilution (final concentration of 1 mM in final volume of 250 µl). […] Cells were immediately washed twice with ice-cold 1 × KRH buffer to terminate the reaction and were lysed rapidly with the addition of 1 % SDS. Cell lysates were collected after incubation for 1 h at room temperature and radioactivity was determined the next day."}, "[2]": {"target": "T2, E2C/H547A hDAT (C90A/C306A/H547A) (Homo sapiens, UniProt Q01959, C306A/C90A/H547A)", "T2 construct": "expressed in transfected cells; host or cells: HEK293 cells, transient, pcDNA3.1+", "T2 sequence (Q01959 1-620 C90A/C306A/H547A)": "T1 sequence (Q01959 1-620 C90A/I159C/C306A) with C159I, H547A", "assay": "MTSET assay, [3H]DA uptake in HEK293 cells", "format": "cell-based", "settings": "1 mM MTSET, HEK293, Fig. 8b", "excerpt": "as §1, §2"}}, "note": "Where a chain is given by its changes, count along the chain named."}
{"smiles": "C[N+](C)(C)CCSS(C)(=O)=O", "note": "[MTSET, [2-(trimethylammonium)ethyl]-methanethiosulfonate]", "values": [{"measurement": "inhibition of [3H]DA uptake relative to no MTSET addition", "setting": "[1]; 1 mM MTSET, 10 min, HEK293, pilot study Fig. 8a", "value": 55, "unit": "%"}, {"measurement": "[3H]DA uptake in the presence of MTSET", "setting": "[1]; 1 mM MTSET, HEK293, Fig. 8b", "value": "46.0 ± 6.0"}, {"measurement": "effect on [3H]DA uptake", "setting": "[1]; MTSET 0.1, 0.5, 1.0 mM, pilot study Fig. 8a", "value": "concentration-dependently inhibited"}, {"measurement": "effect of MTSET on DA uptake", "setting": "[2]", "value": "no effect"}]}
